The text below walks through data of ChEMBL document CHEMBL3991601, “The target landscape of clinical kinase drugs” (Science, 2017).

The target of experiment [1] is Platelet-derived growth factor receptor beta (Homo sapiens, UniProt P09619).
Experiment [2] deals with Bone morphogenetic protein receptor type-1A (Homo sapiens, UniProt P36894).
Another experiment deals with T1, ADP/ATP translocase 3 (Homo sapiens, UniProt P12236).
T1 sequence (P12236 whole entry): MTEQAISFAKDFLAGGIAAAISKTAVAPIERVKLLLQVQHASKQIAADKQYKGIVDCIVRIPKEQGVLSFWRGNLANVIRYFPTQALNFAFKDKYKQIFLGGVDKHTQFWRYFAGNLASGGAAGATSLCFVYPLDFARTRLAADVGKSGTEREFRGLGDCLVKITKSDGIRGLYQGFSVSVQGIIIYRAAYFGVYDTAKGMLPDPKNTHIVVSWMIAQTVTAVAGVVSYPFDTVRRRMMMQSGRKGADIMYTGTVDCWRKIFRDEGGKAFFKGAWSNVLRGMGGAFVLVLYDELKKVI

Experiment [3] concerns the target T2, Serine/threonine-protein kinase ULK1 (Homo sapiens, UniProt O75385).
T2 sequence (O75385 whole entry): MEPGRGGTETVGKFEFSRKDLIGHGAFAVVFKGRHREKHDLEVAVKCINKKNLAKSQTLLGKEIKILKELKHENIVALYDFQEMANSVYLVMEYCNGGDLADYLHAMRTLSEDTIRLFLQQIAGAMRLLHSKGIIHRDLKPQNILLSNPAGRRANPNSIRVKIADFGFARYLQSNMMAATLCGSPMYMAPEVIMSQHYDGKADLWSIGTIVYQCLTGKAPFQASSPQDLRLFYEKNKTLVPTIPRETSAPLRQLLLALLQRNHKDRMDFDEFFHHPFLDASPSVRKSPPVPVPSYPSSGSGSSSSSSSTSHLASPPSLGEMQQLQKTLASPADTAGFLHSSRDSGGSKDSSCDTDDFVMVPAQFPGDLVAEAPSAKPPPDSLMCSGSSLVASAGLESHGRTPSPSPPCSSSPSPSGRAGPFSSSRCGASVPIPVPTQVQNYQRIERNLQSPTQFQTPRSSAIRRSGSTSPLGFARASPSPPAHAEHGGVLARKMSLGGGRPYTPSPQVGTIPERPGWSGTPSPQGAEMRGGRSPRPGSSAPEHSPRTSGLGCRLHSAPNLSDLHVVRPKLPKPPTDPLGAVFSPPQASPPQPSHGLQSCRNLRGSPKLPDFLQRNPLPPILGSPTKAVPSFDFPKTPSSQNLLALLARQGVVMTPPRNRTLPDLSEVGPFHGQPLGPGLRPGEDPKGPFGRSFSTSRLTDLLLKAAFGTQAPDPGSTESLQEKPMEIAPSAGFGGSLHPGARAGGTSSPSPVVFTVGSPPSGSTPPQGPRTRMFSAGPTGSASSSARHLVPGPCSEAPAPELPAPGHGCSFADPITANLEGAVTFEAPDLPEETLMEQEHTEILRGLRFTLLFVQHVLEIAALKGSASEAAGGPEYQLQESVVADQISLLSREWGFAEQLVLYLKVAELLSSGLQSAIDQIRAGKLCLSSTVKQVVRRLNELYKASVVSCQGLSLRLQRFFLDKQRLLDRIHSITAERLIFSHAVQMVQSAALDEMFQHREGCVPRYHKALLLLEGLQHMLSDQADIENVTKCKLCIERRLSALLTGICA

Experiment [4] deals with Mitogen-activated protein kinase kinase kinase 20 (Homo sapiens, UniProt Q9NYL2).
For experiment [5], the target named is T3, General transcription and DNA repair factor IIH helicase subunit XPD (Homo sapiens, UniProt P18074).
T3 sequence (P18074 whole entry): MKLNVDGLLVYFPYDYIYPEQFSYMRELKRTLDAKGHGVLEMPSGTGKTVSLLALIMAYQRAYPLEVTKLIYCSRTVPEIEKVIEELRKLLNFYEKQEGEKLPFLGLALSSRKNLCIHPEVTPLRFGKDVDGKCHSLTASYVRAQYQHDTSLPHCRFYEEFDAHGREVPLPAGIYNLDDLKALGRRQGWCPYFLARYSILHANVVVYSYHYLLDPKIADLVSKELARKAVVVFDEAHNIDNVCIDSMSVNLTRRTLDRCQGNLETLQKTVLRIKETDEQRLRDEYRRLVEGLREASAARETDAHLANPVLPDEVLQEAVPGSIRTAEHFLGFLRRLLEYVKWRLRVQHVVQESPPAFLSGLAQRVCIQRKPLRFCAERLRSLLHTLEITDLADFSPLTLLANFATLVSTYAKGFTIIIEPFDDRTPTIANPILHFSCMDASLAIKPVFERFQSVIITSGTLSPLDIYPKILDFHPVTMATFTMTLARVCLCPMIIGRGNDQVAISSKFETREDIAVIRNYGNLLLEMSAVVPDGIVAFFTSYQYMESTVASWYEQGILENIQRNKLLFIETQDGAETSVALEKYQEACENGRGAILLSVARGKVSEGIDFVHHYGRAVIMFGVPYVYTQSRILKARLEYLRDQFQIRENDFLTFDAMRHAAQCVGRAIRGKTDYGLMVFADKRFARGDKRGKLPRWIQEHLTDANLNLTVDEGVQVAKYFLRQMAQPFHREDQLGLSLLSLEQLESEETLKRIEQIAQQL
The following applies: read-out: Kd apparent; k-562, colo 205, sk-n-be(2) and mv-4-11.

A further experiment addresses Ephrin type-A receptor 5 (Homo sapiens, UniProt P54756).
Experiment [6] concerns the target Tyrosine-protein kinase CSK (Homo sapiens, UniProt P41240).

Molecules are shown by their SMILES. Calls of active or inactive are those of the source. Rule as the data show it, for most assays here: actives have a measured Kd and inactives only a lower limit.
Also: in the data inactive means no Kd found up to 30 µM.

Sequence of Tyrosine-protein kinase CSK (P41240 whole entry): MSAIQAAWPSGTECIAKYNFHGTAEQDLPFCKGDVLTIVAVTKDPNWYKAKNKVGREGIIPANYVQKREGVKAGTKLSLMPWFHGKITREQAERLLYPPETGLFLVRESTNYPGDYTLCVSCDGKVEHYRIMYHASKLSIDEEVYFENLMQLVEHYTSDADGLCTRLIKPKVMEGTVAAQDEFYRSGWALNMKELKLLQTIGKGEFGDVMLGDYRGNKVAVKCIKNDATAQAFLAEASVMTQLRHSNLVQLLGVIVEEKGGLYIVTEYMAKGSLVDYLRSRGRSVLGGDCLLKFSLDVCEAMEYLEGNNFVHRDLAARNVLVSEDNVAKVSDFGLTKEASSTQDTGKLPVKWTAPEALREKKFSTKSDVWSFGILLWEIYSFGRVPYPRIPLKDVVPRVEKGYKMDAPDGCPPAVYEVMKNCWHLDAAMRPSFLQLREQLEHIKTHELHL
Sequence of Ephrin type-A receptor 5 (P54756 whole entry): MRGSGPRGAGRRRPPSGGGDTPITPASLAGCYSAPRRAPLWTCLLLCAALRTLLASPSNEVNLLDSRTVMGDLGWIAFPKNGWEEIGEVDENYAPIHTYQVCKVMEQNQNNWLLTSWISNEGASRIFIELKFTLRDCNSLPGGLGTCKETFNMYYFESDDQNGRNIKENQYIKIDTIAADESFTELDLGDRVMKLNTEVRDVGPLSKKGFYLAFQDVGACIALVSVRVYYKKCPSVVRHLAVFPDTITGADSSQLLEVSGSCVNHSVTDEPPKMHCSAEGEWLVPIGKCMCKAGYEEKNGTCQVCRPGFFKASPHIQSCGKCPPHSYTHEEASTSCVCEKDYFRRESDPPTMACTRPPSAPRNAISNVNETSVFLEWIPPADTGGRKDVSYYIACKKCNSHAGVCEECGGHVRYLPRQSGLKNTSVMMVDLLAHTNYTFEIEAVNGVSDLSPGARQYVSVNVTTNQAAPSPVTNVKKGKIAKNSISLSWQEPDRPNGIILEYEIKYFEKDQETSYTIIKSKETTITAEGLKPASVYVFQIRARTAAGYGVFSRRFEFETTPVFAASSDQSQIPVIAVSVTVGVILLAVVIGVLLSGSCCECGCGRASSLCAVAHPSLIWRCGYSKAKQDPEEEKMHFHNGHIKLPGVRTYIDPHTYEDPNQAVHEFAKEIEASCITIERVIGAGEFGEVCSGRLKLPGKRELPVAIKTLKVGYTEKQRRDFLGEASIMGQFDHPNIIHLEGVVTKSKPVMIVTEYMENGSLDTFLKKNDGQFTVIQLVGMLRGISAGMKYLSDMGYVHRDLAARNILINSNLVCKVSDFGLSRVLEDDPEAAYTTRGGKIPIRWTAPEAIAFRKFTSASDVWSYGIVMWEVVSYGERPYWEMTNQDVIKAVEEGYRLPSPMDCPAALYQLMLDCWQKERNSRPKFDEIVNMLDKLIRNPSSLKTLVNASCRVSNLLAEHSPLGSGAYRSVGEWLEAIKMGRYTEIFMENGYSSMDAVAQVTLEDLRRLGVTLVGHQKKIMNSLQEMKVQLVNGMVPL
Sequence of Mitogen-activated protein kinase kinase kinase 20 (Q9NYL2 whole entry): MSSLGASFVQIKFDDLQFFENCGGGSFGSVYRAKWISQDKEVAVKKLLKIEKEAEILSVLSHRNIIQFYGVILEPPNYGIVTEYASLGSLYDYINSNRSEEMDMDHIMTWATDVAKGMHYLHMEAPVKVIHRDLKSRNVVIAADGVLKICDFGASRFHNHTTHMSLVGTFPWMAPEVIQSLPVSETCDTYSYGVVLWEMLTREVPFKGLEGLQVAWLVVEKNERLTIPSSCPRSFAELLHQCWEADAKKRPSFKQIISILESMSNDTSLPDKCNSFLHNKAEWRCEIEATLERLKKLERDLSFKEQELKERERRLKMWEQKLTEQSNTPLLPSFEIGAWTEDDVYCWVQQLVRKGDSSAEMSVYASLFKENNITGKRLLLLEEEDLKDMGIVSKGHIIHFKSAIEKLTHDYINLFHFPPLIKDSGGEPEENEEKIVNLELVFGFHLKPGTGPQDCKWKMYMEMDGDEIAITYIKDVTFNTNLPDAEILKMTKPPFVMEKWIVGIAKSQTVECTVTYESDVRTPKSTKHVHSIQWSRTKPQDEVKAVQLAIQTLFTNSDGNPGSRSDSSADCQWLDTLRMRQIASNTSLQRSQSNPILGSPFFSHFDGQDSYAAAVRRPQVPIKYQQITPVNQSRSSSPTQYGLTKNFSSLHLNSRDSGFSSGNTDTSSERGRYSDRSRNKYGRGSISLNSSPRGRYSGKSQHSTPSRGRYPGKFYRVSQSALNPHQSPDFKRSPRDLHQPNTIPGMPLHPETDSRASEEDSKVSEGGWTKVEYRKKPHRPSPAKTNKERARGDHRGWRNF
Sequence of Bone morphogenetic protein receptor type-1A (P36894 whole entry): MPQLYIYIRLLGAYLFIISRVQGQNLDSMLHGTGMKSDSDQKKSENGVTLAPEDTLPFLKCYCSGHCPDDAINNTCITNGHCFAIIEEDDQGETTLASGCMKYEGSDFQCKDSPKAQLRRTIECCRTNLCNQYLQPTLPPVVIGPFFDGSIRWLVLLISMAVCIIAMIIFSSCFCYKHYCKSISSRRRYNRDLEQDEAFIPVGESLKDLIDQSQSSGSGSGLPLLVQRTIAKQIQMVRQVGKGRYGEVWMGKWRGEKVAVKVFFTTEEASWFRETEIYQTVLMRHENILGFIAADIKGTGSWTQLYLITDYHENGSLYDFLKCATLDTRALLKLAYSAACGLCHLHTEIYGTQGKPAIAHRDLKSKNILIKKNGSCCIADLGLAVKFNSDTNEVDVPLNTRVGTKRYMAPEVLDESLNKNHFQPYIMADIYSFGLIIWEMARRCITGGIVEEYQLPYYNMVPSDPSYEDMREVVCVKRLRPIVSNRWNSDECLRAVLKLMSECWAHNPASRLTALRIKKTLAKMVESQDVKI
Sequence of Platelet-derived growth factor receptor beta (P09619 whole entry): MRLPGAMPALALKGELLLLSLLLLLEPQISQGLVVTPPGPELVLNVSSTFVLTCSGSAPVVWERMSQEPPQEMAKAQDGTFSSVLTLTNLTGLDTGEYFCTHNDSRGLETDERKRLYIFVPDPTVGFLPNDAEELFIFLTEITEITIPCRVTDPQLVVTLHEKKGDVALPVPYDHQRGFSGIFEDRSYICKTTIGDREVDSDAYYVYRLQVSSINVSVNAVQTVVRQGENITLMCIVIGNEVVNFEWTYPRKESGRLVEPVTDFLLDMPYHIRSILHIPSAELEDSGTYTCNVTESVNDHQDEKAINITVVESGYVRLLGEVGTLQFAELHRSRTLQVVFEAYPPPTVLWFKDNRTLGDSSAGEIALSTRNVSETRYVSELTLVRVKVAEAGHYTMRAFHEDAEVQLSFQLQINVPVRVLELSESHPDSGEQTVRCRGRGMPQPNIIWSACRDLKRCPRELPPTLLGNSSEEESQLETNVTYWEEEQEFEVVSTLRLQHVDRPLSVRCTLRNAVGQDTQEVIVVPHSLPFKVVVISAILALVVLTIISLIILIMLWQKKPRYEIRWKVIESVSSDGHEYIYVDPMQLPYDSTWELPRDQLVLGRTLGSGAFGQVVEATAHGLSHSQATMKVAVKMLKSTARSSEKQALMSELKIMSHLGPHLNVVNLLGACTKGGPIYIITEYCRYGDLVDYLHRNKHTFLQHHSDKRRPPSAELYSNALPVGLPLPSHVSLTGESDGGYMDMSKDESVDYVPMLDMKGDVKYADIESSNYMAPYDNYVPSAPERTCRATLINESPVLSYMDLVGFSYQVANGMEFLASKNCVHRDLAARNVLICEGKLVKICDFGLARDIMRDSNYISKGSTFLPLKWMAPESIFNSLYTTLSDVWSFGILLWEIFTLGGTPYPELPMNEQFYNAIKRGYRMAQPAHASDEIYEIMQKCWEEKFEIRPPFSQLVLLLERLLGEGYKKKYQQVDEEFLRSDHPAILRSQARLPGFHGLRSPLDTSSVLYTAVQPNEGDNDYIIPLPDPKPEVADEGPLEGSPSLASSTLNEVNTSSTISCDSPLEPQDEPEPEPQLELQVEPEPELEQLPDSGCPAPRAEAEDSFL

For the compound `C[C@@H](Oc1cc(C(=O)Nc2ccc(C(=O)N3CCN(C)CC3)cc2)nnc1N)c1c(Cl)ccc(F)c1Cl`, the Kd (in experiment [1]; in experiment [2]; at ADP/ATP translocase 3; in experiment [3]; in experiment [4]; in experiment [5]) was > 30 µM (inactive) in each case. Further, the Kd (on Ephrin type-A receptor 5; in experiment [6]) was > 30 µM (inactive) throughout.

On to `C[C@H]1CNCCCN1S(=O)(=O)c1cccc2cncc(F)c12`, for which the Kd (in experiment [1]; in experiment [2]; on ADP/ATP translocase 3; in experiment [3]; in experiment [4]; in experiment [5]) was > 30 µM (inactive) throughout. The Kd (at Ephrin type-A receptor 5; in experiment [6]) was > 30 µM (inactive) each time.

As for `CC(=O)c1cnc2ccc(-c3cc(Cl)c(O)c(Cl)c3)nc2c1N[C@H]1CC[C@H](CN(C)C)CC1`, the Kd was 0.103 µM (active) in experiment [1]; > 30 µM (inactive) in experiment [2]; > 30 µM (inactive) on ADP/ATP translocase 3; > 30 µM (inactive) in experiment [3]; 0.101 µM (active) in experiment [4]; > 30 µM (inactive) in experiment [5]. The Kd was 0.075 µM (active) on Ephrin type-A receptor 5 and > 30 µM (inactive) in experiment [6].

With `C=CC(=O)N1CCC[C@H](n2c(=O)n(-c3ccc(Oc4ccccc4)cc3)c3c(N)ncnc32)C1`, the Kd (in experiment [1]; in experiment [2]; on ADP/ATP translocase 3; in experiment [3]; in experiment [4]; in experiment [5]) was > 30 µM (inactive) in each case. Besides, the Kd was > 30 µM (inactive) on Ephrin type-A receptor 5 and 0.007 µM in experiment [6].

Turning to `COCc1c(-c2ccc(NC(=O)Nc3cc(C(F)(F)F)ccc3F)c(F)c2)c2c(N)ncnn2c1CN1CCOCC1`, the Kd (in experiment [1]; in experiment [2]; on ADP/ATP translocase 3; in experiment [3]; in experiment [4]; in experiment [5]) was > 30 µM (inactive) throughout. Moreover, the Kd (at Ephrin type-A receptor 5; in experiment [6]) was > 30 µM (inactive) throughout.

`Nc1ncnc2c1c(-c1cccc(OCc3ccccc3)c1)cn2[C@H]1C[C@@H](CN2CCC2)C1` [AEW-541]: the Kd (in experiment [1]; in experiment [2]; on ADP/ATP translocase 3; in experiment [3]; in experiment [4]; in experiment [5]) was > 30 µM (inactive) throughout. Also, the Kd (at Ephrin type-A receptor 5; in experiment [6]) was > 30 µM (inactive) each time.

As to `Cc1nc(NC(=O)N2CCC[C@H]2C(N)=O)sc1-c1ccnc(C(C)(C)C(F)(F)F)c1` [ALPELISIB], the Kd (in experiment [1]; in experiment [2]; at ADP/ATP translocase 3; in experiment [3]; in experiment [4]; in experiment [5]) was > 30 µM (inactive) throughout. Also, the Kd (on Ephrin type-A receptor 5; in experiment [6]) was > 30 µM (inactive) in each case.

Turning to `Cc1csc(-c2nnc(Nc3ccc(Oc4ncccc4-c4ccnc(N)n4)cc3)c3ccccc23)c1` [AMG-900], the Kd in experiment [1] is > 30 µM (inactive); in experiment [2], > 30 µM (inactive); on ADP/ATP translocase 3, > 30 µM (inactive); in experiment [3] it was 0.19 µM (active); in experiment [4] it was > 30 µM (inactive); in experiment [5] it was > 30 µM (inactive). For the same compound, the Kd (on Ephrin type-A receptor 5; in experiment [6]) was > 30 µM (inactive) in each case.

On to `C=CC(=O)Nc1cc2c(Nc3ccc(F)c(Cl)c3)ncnc2cc1C#CC(C)(C)N1CCN(C)CC1` [AV-412 FREE BASE], for which the Kd (in experiment [1]; in experiment [2]; on ADP/ATP translocase 3; in experiment [3]; in experiment [4]; in experiment [5]) was > 30 µM (inactive) each time. Moreover, the Kd (at Ephrin type-A receptor 5; in experiment [6]) was > 30 µM (inactive) throughout.

Take `Cc1cc(C(=O)NOCCO)c(Nc2ccc(I)cc2F)n(C)c1=O` [AZD-8330]: the Kd (in experiment [1]; in experiment [2]; at ADP/ATP translocase 3; in experiment [3]; in experiment [4]; in experiment [5]) was > 30 µM (inactive) each time. Moreover, the Kd (at Ephrin type-A receptor 5; in experiment [6]) was > 30 µM (inactive) throughout.

As to `COc1c(OCCCN2CCOCC2)ccc2c1N=C(NC(=O)c1cnc(N)nc1)N1CCN=C21` [COPANLISIB], the Kd (in experiment [1]; in experiment [2]; on ADP/ATP translocase 3; in experiment [3]; in experiment [4]; on Ephrin type-A receptor 5) was > 30 µM (inactive) throughout. Besides, the Kd in experiment [6] was > 30 µM (inactive).

For the compound `O=C(Nc1nc2cccc(-c3ccc(CN4CCS(=O)(=O)CC4)cc3)n2n1)C1CC1` [FILGOTINIB], the Kd (in experiment [1]; in experiment [2]; on ADP/ATP translocase 3; in experiment [3]; in experiment [4]; on Ephrin type-A receptor 5) was > 30 µM (inactive) in each case. Moreover, in experiment [6], the Kd was > 30 µM (inactive).

For the compound `CCn1cc(-c2ccnc3[nH]c(-c4cccc(CN(C)C)c4)cc23)c(-c2ccc(NC(=O)N(C)C)cc2)n1` [GSK-1070916], the Kd (in experiment [1]; in experiment [2]; at ADP/ATP translocase 3; in experiment [3]; in experiment [4]; on Ephrin type-A receptor 5) was > 30 µM (inactive) each time. Moreover, the Kd in experiment [6] is > 30 µM (inactive).

For `CCS(=O)(=O)c1cccc(-c2cc(C(=O)NC3CCN(C)CC3)c(C)c3[nH]c4ncc(C)cc4c23)c1` [TAK-901], the Kd was 4.59 µM (active) in experiment [1]; > 30 µM (inactive) in experiment [2]; > 30 µM (inactive) on ADP/ATP translocase 3; > 30 µM (inactive) in experiment [3]; > 30 µM (inactive) in experiment [4]; 0.508 µM (active) on Ephrin type-A receptor 5. Moreover, the Kd in experiment [6] is > 30 µM (inactive).
